Assay results as given in patent publication US8940739B2, “Compound of a reverse-turn mimetic and a production method and use therefor” (JW Pharmaceutical Corporation, priority 2010, dated 2015).

Legend:
[1] = biological target: cDNA-expressed human hepatic CYP3A4 (Homo sapiens (Human), UniProt P08684); experiment: Measurement of CYP (IC50 of P450 CYP3A4), BFC substrate; assay type: in vitro ADME; conditions: 20 minutes
Outline: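 cDNA-expressed human CYP3A4 supersomes in 0.1M potassium phosphate pH 7.4 with 8.3 mM MgCl2, 1.67 mM EDTA and 0.25 mM NADPH; compounds in acetonitrile (<1% final). Reaction started with 30 µM BFC, 20 min at 37. 7-Hydroxy-4-trifluoromethyl-coumarin read by fluorescence (ex 409/em 530 nm).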

[2] = tested on: MV-4-11 (human, Acute Myeloid Leukemia cell line) cells; experiment: Cell growth inhibition assay, GI50 of MV-4-11; assay type: cell-based; conditions: Homo sapiens, MV4-11, 72 h, MV-4-11 cells
Outline: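 GI50 derived from 490 nm absorbance using CellTiter 96 Aqueous One reagent, with compound-free medium providing the background. Human AML MV-4-11 cells, seeded at 5×10^4 per well in IMDM/10% FBS, incubated 72 h at 37 °C with duplicate serial dilutions of test compound.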

Sequence of cDNA-expressed human hepatic CYP3A4 (P08684 whole entry): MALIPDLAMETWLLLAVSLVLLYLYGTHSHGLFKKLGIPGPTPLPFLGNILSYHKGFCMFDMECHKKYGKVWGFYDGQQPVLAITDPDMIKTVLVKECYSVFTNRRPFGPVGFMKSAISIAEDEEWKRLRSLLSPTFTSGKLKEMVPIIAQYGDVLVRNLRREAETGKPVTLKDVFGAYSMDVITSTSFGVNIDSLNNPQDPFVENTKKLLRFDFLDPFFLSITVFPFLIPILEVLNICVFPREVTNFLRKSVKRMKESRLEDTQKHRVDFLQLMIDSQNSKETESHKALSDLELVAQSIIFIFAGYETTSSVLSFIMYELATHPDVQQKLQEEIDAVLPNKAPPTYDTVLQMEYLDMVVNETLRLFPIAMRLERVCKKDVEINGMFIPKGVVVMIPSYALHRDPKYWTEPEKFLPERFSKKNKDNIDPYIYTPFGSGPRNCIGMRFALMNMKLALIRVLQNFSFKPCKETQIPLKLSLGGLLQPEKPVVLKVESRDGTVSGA

Row | SMILES | IC50 [1] [µM] | GI50 [2] [nM]
1 | C=CCN1CC(=O)N2C(Cc3ccc(O)cc3)C(=O)N(Cc3cccc4c(C(=O)Nc5ccc(N6CCC(O)CC6)nc5)cn(C)c34)CC2N1C(=O)NCc1ccccc1 (centres unmarked) [Compound G-37] | 6.95 | 1.3
2 | C=CCN1CC(=O)N2[C@@H](Cc3ccc(O)cc3)C(=O)N(Cc3cccc4c(C(=O)Nc5ccc(N6CCC(OC)CC6)nc5)cn(C)c34)C[C@@H]2N1C(=O)NCc1ccccc1 [Compound G-38] | 2.21 | 0.6
3 | C=CCN1CC(=O)N2C(CN(Cc3cccc4c(C(=O)Nc5ccc(N6CCNCC6)nc5)cn(C)c34)C(=O)[C@@H]2Cc2ccc(O)cc2)N1C(=O)NCc1ccccc1 (some centres unmarked) [Compound G-39] | 2.73 | 11.3
4 | C=CCN1CC(=O)N2C(CN(Cc3cccc4c(C(=O)Nc5ccc(N6CCN(C)CC6)nc5)cn(C)c34)C(=O)[C@@H]2Cc2ccc(O)cc2)N1C(=O)NCc1ccccc1 (some centres unmarked) [Compound G-41] | 7.6 | 1.3
5 | C=CCN1CC(=O)N2C(CN(Cc3cccc4c(C(=O)Nc5ccc(N6CCN(CC)CC6)nc5)cn(C)c34)C(=O)[C@@H]2Cc2ccc(O)cc2)N1C(=O)NCc1ccccc1 (some centres unmarked) [Compound G-42] | 5.73 | 1.3
6 | C=CCN1CC(=O)N2C(Cc3ccc(O)cc3)C(=O)N(Cc3cccc4c(C(=O)Nc5ccc(N6CCN(CCC)CC6)nc5)cn(C)c34)CC2N1C(=O)NCc1ccccc1 (centres unmarked) [Compound G-43] | 6.94 | 1.3
7 | C=CCN1CC(=O)N2C(Cc3ccc(O)cc3)C(=O)N(Cc3cccc4c(C(=O)Nc5ccc(N6CCN(CCO)CC6)nc5)cn(C)c34)CC2N1C(=O)NCc1ccccc1 (centres unmarked) [Compound G-44] | 6.04 | 1.3
8 | C=CCN1CC(=O)N2C(CN(Cc3cccc4c(C(=O)Nc5ccc(N6CCN(C(C)C)CC6)nc5)cn(C)c34)C(=O)[C@@H]2Cc2ccc(O)cc2)N1C(=O)NCc1ccccc1 (some centres unmarked) [Compound G-46] | 6.12 | 1.3
9 | C=CCN1CC(=O)N2[C@@H](Cc3ccc(O)cc3)C(=O)N(Cc3cccc4c(C(=O)Nc5cnc(N6CCN(C(C)C)CC6)nc5)cn(C)c34)C[C@@H]2N1C(=O)NCc1ccccc1 [Compound G-47] | 3.67 | 2.3
10 | C=CCN1CC(=O)N2C(Cc3ccc(O)cc3)C(=O)N(Cc3cccc4c(C(=O)Nc5ccc(N6CCN(C(C)(C)C)CC6)nc5)cn(C)c34)CC2N1C(=O)NCc1ccccc1 (centres unmarked) [Compound G-48] | 4.19 | 1.3
11 | C=CCN1CC(=O)N2C(Cc3ccc(O)cc3)C(=O)N(Cc3cccc4c(C(=O)Nc5ccc(N6CCN(C7CC7)CC6)nc5)cn(C)c34)CC2N1C(=O)NCc1ccccc1 (centres unmarked) [Compound G-49] | 6.94 | 1.3
12 | C=CCN1CC(=O)N2[C@@H](Cc3ccc(O)cc3)C(=O)N(Cc3cccc4c(C(=O)Nc5ccc(N6CCN(C7CCCC7)CC6)nc5)cn(C)c34)C[C@@H]2N1C(=O)NCc1ccccc1 [Compound G-50] | 17.2 | 2.4
13 | C=CCN1CC(=O)N2C(Cc3ccc(O)cc3)C(=O)N(Cc3cccc4c(C(=O)Nc5ccc(N6CCC(N7CCCC7)CC6)nc5)cn(C)c34)CC2N1C(=O)NCc1ccccc1 (centres unmarked) [Compound G-51] | 3.97 | 1.3
14 | C=CCN1CC(=O)N2C(Cc3ccc(O)cc3)C(=O)N(Cc3cccc4c(C(=O)Nc5ccc(NC6CC(C)(C)N(C)C(C)(C)C6)nc5)cn(C)c34)CC2N1C(=O)NCc1ccccc1 (centres unmarked) [Compound G-52] | 7.1 | 13
15 | C=CCN1CC(=O)N2C(Cc3ccc(O)cc3)C(=O)N(Cc3cccc4c(C(=O)Nc5ccc(N6CCN(C(C)=O)CC6)nc5)cn(C)c34)CC2N1C(=O)NCc1ccccc1 (centres unmarked) [Compound G-53] | > 25 | 1.3
16 | C=CCN1CC(=O)N2[C@@H](Cc3ccc(O)cc3)C(=O)N(Cc3cccc4c(C(=O)Nc5ccc(N6CCC(N7CCC7)CC6)nc5)cn(C)c34)C[C@@H]2N1C(=O)NCc1ccccc1 [Compound G-54] | 3.29 | 1.4

Row | SMILES | IC50 [1] [µM] | GI50 [2] [nM]
17 | C=CCN1CC(=O)N2C(Cc3ccc(O)cc3)C(=O)N(Cc3cccc4c(C(=O)Nc5ccc(N6CCC(N7CCCCC7)CC6)nc5)cn(C)c34)CC2N1C(=O)NCc1ccccc1 (centres unmarked) [Compound G-55] | 2.37 | 1.3
18 | C=CCN1CC(=O)N2[C@@H](Cc3ccc(O)cc3)C(=O)N(Cc3cccc4c(C(=O)Nc5ccc(N6CCC(N7CCN(C)CC7)CC6)nc5)cn(C)c34)C[C@@H]2N1C(=O)NCc1ccccc1 [Compound G-57] | 6.32 | 1.3
19 | C=CCN1CC(=O)N2[C@@H](Cc3ccc(O)cc3)C(=O)N(Cc3cccc4c(C(=O)Nc5ccc(N6CC(O)C6)nc5)cn(C)c34)C[C@@H]2N1C(=O)NCc1ccccc1 [Compound G-61] | 4.87 | 8.5
20 | C=CCN1CC(=O)N2[C@@H](Cc3ccc(O)cc3)C(=O)N(Cc3cccc4c(C(=O)Nc5ccc(N6CC(N7CCN(C)CC7)C6)nc5)cn(C)c34)C[C@@H]2N1C(=O)NCc1ccccc1 [Compound G-62] | 4.1 | 1.4
21 | C=CCN1CC(=O)N2[C@@H](Cc3ccc(O)cc3)C(=O)N(Cc3cccc4c(C(=O)Nc5ccc(N6CC(N7CCC(OC)CC7)C6)nc5)cn(C)c34)C[C@@H]2N1C(=O)NCc1ccccc1 [Compound G-63] | 2.56 | 1.5
22 | C=CCN1CC(=O)N2[C@@H](Cc3ccc(O)cc3)C(=O)N(Cc3cccc4c(C(=O)Nc5ccc(N6CC7CCN(C)C7C6)nc5)cn(C)c34)C[C@@H]2N1C(=O)NCc1ccccc1 (some centres unmarked) [Compound G-64] | 7.64 | 1.3
23 | C=CCN1CC(=O)N2C(CN(Cc3cccc4c(C(=O)Nc5ccc(N6CCC7(CCN(CC)C7)C6)nc5)cn(C)c34)C(=O)[C@@H]2Cc2ccc(O)cc2)N1C(=O)NCc1ccccc1 (some centres unmarked) [Compound G-65] | 3.91 | 1.3
24 | C=CCN1CC(=O)N2C(CN(Cc3cccc4c(C(=O)Nc5ccc(N6CCC7CCCN7C6)nc5)cn(C)c34)C(=O)[C@@H]2Cc2ccc(O)cc2)N1C(=O)NCc1ccccc1 (some centres unmarked) [Compound G-66] | 4.6 | 1.3
25 | C=CCN1CC(=O)N2[C@@H](Cc3ccc(O)cc3)C(=O)N(Cc3cccc4c(C(=O)Nc5ccc(N6CCCN(C)CC6)nc5)cn(C)c34)C[C@@H]2N1C(=O)NCc1ccccc1 [Compound G-67] | 11.2 | 1.3
26 | C=CCN1CC(=O)N2C(Cc3ccc(O)cc3)C(=O)N(Cc3cccc4c(-c5ccc(NC(=O)N6CCN(S(C)(=O)=O)CC6)nc5)cn(C)c34)CC2N1C(=O)NCc1ccccc1 (centres unmarked) [Compound G-68] | 6.4 | 2.2
27 | C=CCN1CC(=O)N2C(CN(Cc3cccc4c(C(=O)Nc5ccc6c(c5)OCCO6)cn(C)c34)C(=O)[C@@H]2Cc2ccc(O)cc2)N1C(=O)NCc1ccccc1 (some centres unmarked) [Compound G-70] | 2.63 | 1.7
28 | C=CCN1CC(=O)N2[C@@H](Cc3ccc(O)cc3)C(=O)N(Cc3cccc4c(-c5ccc(C(=O)OC)cc5)cn(C)c34)C[C@@H]2N1C(=O)NCc1ccccc1 [Compound H-1] | 3.85 | 15
29 | C=CCN1CC(=O)N2[C@@H](Cc3ccc(O)cc3)C(=O)N(Cc3cccc4c(-c5ccc(C#N)cc5)cn(C)c34)C[C@@H]2N1C(=O)NCc1ccccc1 [Compound H-2] | 9.33 | 17.8
30 | C=CCN1CC(=O)N2C(CN(Cc3cccc4c(-c5ccc(S(C)(=O)=O)cc5)cn(C)c34)C(=O)[C@@H]2Cc2ccc(O)cc2)N1C(=O)NCc1ccccc1 (some centres unmarked) [Compound H-3] | 10 | 2.2
31 | C=CCN1CC(=O)N2[C@@H](Cc3ccc(O)cc3)C(=O)N(Cc3cccc4c(-c5cnc6ccccc6c5)cn(C)c34)C[C@@H]2N1C(=O)NCc1ccccc1 [Compound H-6] | 2.09 | 9.7
